The target in one data set is human SGLT-1 (Homo sapiens (Human), UniProt P13866). As to the kind of experiment: In-vitro [14C]-AMG uptake inhibition assay in CHO cells stably expressing human SGLT-1. The format is cell-based. The following applies: human SGLT-1 in CHO cells. As to the method:
In the in-vitro assay for the pharmacological activities of the present compounds, the human SGLT-2 and SGLT-1 sequences were transfected to Chinese hamster ovary cells to express stably. By measuring inhibition of the sodium dependent adsorption of [^14C]-labeled […]-D-glucopyranoside (AMG) into the cells, the half-inhibition concentration IC50 was determined. Buffer A (KRH—Na^+): 120 mM NaCl, 4.7 mM KCl, 1.2 mM MgCl2, 2.2 mM CaCl2, 10 mM HEPES (PH 7.4 with 1 mM Tris). Buffer A− (KRH—NMG): 120 mM NMG, 4.7 mM KCl, 1.2 mM MgCl2, 2.2 mM CaCl2, 10 mM HEPES (PH 7.4 with 1 mM Tris). Buffer D: 120 mM NaCl, 4.7 mM KCl, 1.2 mM MgCl2, 2.2 mM CaCl2, 10 mM HEPES, 0.5 mM phlorizin (PH 7.4 with 1 mM Tris). Assay method: Human SGLT-2 and SGLT-1 sequences were stably expressed in the CHO cells. The cell culture was conducted in a 96-well plate for 12 hr. The plate was washed with KRH—Na+(Buffer A) or KRH-NMG (Buffer A−) buffering solution for three times, 2004/well. Then the plate was added with a buffering solution containing Buffer A or Buffer A− plus [^14C]-AMG (10 μCi/mL), 100 μL/well. The cell culture was conducted at 37° C. for 1 hr. Then, 100 μL of an ice pre-cooled buffering solution (Buffer D) was added to terminate the assay. The plate was washed for five times. Then an ice pre-cooled lytic buffering solution (100 mM NaOH solution) was added, 20 μL/well, and the centrifugation at 600 rpm was conducted for 5 mins. Then Microscint 40 solution was added, 80 μl/well, and the centrifugation at 600 rpm was conducted for 5 mins. Finally, the radioactivity of [^14C]-AMG was detected with MicroBeta Trilux (purchased from PerkinElmer Co. Ltd.) according to the scintillation counting method, and the half-inhibition concentration IC50 was calculated.

The nature of data set [1]: Rat in-vivo pharmacokinetic assay (PO). Conditions: male SD rats, PO 10 mg/kg, plasma. As to the method: Assay animals: 6-8 weeks aged male SD rats (purchased from Vital River Laboratories), 3 rats per compound, weighing 200-240 g.
Solvent: 0.5% MC (methyl cellulose) solution+0.1% SDS (sodium dodecyl sulfate).
Intragastric administration (PO): See Table 2
Blood collection: each of 200 μL whole blood were collected at 0.17 hr, 0.5 hr, 1 hr, 2 hr, 4 hr, 6 hr, 8 hr, 24 hr, 30 hr, 48 hr, 54 hr and 72 hr. The collected blood samples were centrifuged at 4° C. at 8000 rpm in a low temperature high-speed centrifuge (5415R, Eppendorf) for 6 mins to separate the blood plasma. The separated plasma was preserved at −80° C. in a refrigerator.
20 μL of the plasma was carefully taken out, to which was added 600 µL of an internal standard MTBE (methyl tert-butyl ether) solution (containing internal standard dapagliflozin 25 ng/ml). The plasma was subjected to a vortex at 1500 rpm for 10 mins, and then centrifuged at 12000 rpm for 5 mins. 4004 of the supernatant was taken and blow-dried with nitrogen gas. The dried substance was redissolved with 2004 of a redissolving solution (acetonitrile:water=7:3). The solution was subjected to a vortex for 10 mins, and analyzed with LC-MS/MS (API4000, Applied Biosystems).

For the next data set, the target named is human SGLT-2 (Homo sapiens (Human), UniProt P31639). The data set can be described thus: In-vitro [14C]-AMG uptake inhibition assay in CHO cells stably expressing human SGLT-2. The class given is cell-based. Conditions: for Selectivity: SGLT-1 IC50 / SGLT-2 IC50. As to the method:
In the in-vitro assay for the pharmacological activities of the present compounds, the human SGLT-2 and SGLT-1 sequences were transfected to Chinese hamster ovary cells to express stably. By measuring inhibition of the sodium dependent adsorption of [^14C]-labeled […]-D-glucopyranoside (AMG) into the cells, the half-inhibition concentration IC50 was determined.
Buffer A (KRH—Na^+): 120 mM NaCl, 4.7 mM KCl, 1.2 mM MgCl2, 2.2 mM CaCl2, 10 mM HEPES (PH 7.4 with 1 mM Tris).
Buffer A− (KRH—NMG): 120 mM NMG, 4.7 mM KCl, 1.2 mM MgCl2, 2.2 mM CaCl2, 10 mM HEPES (PH 7.4 with 1 mM Tris).
Buffer D: 120 mM NaCl, 4.7 mM KCl, 1.2 mM MgCl2, 2.2 mM CaCl2, 10 mM HEPES, 0.5 mM phlorizin (PH 7.4 with 1 mM Tris).
Assay method: Human SGLT-2 and SGLT-1 sequences were stably expressed in the CHO cells. The cell culture was conducted in a 96-well plate for 12 hr. The plate was washed with KRH—Na+(Buffer A) or KRH-NMG (Buffer A−) buffering solution for three times, 2004/well. Then the plate was added with a buffering solution containing Buffer A or Buffer A− plus [^14C]-AMG (10 μCi/mL), 100 μL/well. The cell culture was conducted at 37° C. for 1 hr. Then, 100 μL of an ice pre-cooled buffering solution (Buffer D) was added to terminate the assay. The plate was washed for five times. Then an ice pre-cooled lytic buffering solution (100 mM NaOH solution) was added, 20 μL/well, and the centrifugation at 600 rpm was conducted for 5 mins. Then Microscint 40 solution was added, 80 μl/well, and the centrifugation at 600 rpm was conducted for 5 mins. Finally, the radioactivity of [^14C]-AMG was detected with MicroBeta Trilux (purchased from PerkinElmer Co. Ltd.) according to the scintillation counting method, and the half-inhibition concentration IC50 was calculated.

human SGLT-1, sequence (P13866 whole entry): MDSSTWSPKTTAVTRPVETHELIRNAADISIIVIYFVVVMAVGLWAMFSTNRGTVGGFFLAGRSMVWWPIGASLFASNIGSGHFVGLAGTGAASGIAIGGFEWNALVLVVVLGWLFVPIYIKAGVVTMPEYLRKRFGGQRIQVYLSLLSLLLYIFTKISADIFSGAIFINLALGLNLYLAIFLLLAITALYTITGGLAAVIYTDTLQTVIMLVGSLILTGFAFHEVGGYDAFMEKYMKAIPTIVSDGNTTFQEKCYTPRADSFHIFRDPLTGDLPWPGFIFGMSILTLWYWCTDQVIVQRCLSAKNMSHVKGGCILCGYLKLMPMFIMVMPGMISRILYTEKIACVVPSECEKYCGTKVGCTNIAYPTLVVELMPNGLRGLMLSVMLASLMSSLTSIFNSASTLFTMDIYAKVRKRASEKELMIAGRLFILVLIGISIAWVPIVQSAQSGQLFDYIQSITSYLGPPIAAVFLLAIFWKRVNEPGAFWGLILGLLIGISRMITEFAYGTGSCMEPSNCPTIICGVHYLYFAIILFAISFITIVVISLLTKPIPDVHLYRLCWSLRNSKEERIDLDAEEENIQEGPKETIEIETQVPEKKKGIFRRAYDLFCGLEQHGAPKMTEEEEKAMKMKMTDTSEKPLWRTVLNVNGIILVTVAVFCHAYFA
human SGLT-2, sequence (P31639 whole entry): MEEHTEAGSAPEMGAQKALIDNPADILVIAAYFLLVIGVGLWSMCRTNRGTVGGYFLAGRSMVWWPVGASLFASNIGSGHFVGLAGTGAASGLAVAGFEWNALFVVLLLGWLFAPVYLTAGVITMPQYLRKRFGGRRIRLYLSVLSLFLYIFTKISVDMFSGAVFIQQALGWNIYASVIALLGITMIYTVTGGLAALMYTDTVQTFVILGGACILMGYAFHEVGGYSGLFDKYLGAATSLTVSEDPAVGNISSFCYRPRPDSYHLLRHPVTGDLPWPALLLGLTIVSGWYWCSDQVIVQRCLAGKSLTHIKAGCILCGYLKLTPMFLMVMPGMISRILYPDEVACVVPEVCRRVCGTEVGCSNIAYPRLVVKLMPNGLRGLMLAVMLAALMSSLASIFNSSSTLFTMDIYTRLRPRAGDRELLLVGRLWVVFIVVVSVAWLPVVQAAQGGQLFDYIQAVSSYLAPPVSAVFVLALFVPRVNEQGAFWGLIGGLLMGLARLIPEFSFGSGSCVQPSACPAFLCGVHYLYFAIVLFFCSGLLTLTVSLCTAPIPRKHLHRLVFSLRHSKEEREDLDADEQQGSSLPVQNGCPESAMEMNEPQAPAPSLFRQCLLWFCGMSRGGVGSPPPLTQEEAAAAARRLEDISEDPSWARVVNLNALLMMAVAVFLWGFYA

As a reminder, the IC50 is the point on the concentration scale where inhibition reaches its midpoint. Low values mean inhibition by little substance, high ones a need for much substance. As a reminder, the AUC(0-inf) is the area under the concentration-time curve extrapolated to infinity. For orientation: AUC(0-t) means exposure summed from dosing to a finite time, without extrapolation to infinity. A lower AUC(0-t) goes with low exposure. As usually defined, the Cmax is the highest concentration seen after dosing. For orientation: Tmax means the time at which the peak concentration occurs. A word on the half-life: it is the time needed for the level to fall by half in the phase considered. Lower therefore signals fast loss. In the case of `OC[C@H]1O[C@@H](c2ccc(Cl)c(Cc3ccc(O[C@H]4C[C@@H]5C[C@@H]5C4)cc3)c2)[C@H](O)[C@@H](O)[C@@H]1O` [Compound represented by formula (II), (2S,3R,4R,5S,6R)-2-(3-(4-(((1R,3s,5S)-bicyclo[3.1.0]hexan-3-yl)oxy)benzyl)-4-chlorophenyl)-6-(hydroxymethyl)tetrahydro-2H-pyran-3,4,5-triol], half-maximal inhibition against human SGLT-1 (IC50) was put at 17.2 µM. Also, in data set [1], the AUC(0-inf) was 92100 ng·h/mL, the area under the curve AUC(0-t) was determined as 92100 ng·h/mL, the peak concentration (Cmax) turned out to be 6380 ng/mL and the time to peak (Tmax) turned out to be 1 h. The molecule also gave a half-life in data set [1] of 8.98 h. The midpoint of inhibition against human SGLT-2 (human SGLT-2 in CHO cells, [14C]-AMG uptake), the IC50, lay at 0.0025 µM.

In turn, `OC[C@H]1O[C@@H](c2ccc(Cl)c(Cc3ccc(O[C@@H]4C[C@@H]5C[C@@H]5C4)cc3)c2)[C@H](O)[C@@H](O)[C@@H]1O` [Compound represented by formula (III), (2S,3R,4R,5S,6R)-2-(3-(4-(((1R,3r,5S)-bicyclo[3.1.0]hexan-3-yl)oxy)benzyl)-4-chlorophenyl)-6-(hydroxymethyl)tetrahydro-2H-pyran-3,4,5-triol] displayed a 50% inhibitory concentration (IC50) against human SGLT-1 of 3.08 µM. The Selectivity at human SGLT-2 is listed as 392.77.

With `OC[C@H]1O[C@H](c2ccc(Cl)c(Cc3ccc(O[C@H]4C[C@@H]5C[C@@H]5C4)cc3)c2)[C@H](O)[C@@H](O)[C@@H]1O` [Compound represented by formula (IV), (2R,3R,4R,5S,6R)-2-(3-(4-(((1R,3s,5S)-bicyclo[3.1.0]hexan-3-yl)oxy)benzyl)-4-chlorophenyl)-6-(hydroxymethyl)tetrahydro-2H-pyran-3,4,5-triol], the IC50 against human SGLT-1 was 111 µM. In addition, at human SGLT-2, the Selectivity worked out at 100.34.

At human SGLT-1, `OC[C@H]1O[C@H](c2ccc(Cl)c(Cc3ccc(O[C@@H]4C[C@@H]5C[C@@H]5C4)cc3)c2)[C@H](O)[C@@H](O)[C@@H]1O` [Compound represented by formula (V), (2R,3R,4R,5S,6R)-2-(3-(4-(((1R,3r,5S)-bicyclo[3.1.0]hexan-3-yl)oxy)benzyl)-4-chlorophenyl)-6-(hydroxymethyl)tetrahydro-2H-pyran-3,4,5-triol] returned an IC50 of 75.5 µM. Moreover, the Selectivity on human SGLT-2 is on record as 267.77.
